In publication PMC10960472 (Veterinary Research, 2024):
Values after ≈ are worked out from the molar mass of the structure shown. Like-named read-outs stand apart in the source and are kept apart here. No end group written: not given here.

Key:
E. coli RS218 [1] = assay: microbe, parasite or virus in culture; details: Escherichia coli; for MBC: RS218, read-out: MBC, E. coli RS218, colony counting on LB agar from wells without visible growth; for MIC: RS218, read-out: MIC, E. coli RS218, MHB microdilution, 16-20 h at 37 °C, triplicate, lowest concentration inhibiting visual growth
E. coli PCN033 [2] = system: E. coli PCN033
E. coli RS218 [3] = system: E. coli RS218
PCN033 [4] = assay: Mouse model of systemic infection with PCN033; format: in vivo; details: C57BL/6 mice, 1 × 10^7 CFU PCN033 i.p., 30 mg/kg tetracycline i.p. 2 h after infection, n = 10/group
Procedure: Female C57BL/6 mice (6–8 weeks old) were obtained from Chongqing Lepitt Biotechnology Co., Ltd. This study was approved by the Institutional Animal Care and Use Committee (IACUC) of Southwest University, Chongqing, China (IACUC-20221022-18). […] Afterwards, different assays were performed as described below.
For the generation of survival curves, mice (n = 10/group) were monitored every 6 h until 72 h post-infection. Statistical analysis was conducted by the log rank (Mantel‒Cox) test in GraphPad Prism 8.0 software.
Mice (n = 5/group) were euthanized at 12 h post-infection. Then, organs (spleen, liver, and lung), blood and peritoneal lavage fluid (PLF) were collected and homogenized to determine the bacterial load via serial tenfold dilutions, plating on LB agar plates, and incubation at 37 °C overnight.
For histopathological observation, mice (n = 3/group) were euthanized at 12 h post-infection. Then, the lung tissues were fixed with 10% formaldehyde for over one week and embedded in paraffin for histological analysis.
For cytokine detection, the mice (n = 3/group) were euthanized at 12 h post-infection. Then, the expression of inflammatory cytokines (IL-1α, IL-1β, IL-6, IL-12 and TNF-α) in the lungs, liver, spleen, and PLF and the expression of chemokines (CXCL1 and CXCL2) in the PLF were determined using ELISA kits. […]

E. coli PCN033 [5] = assay: Checkerboard assay, fractional bactericidal concentration index; format: cell-based, Escherichia coli; details: PMAP-36 with tetracycline, against multidrug-resistant porcine ExPEC
PCN033 and RS218 = assay: MIC and MBC, summary over both strains; format: cell-based; details: Escherichia coli; for MBC: read-out: MBCs against PCN033 and RS218; for MIC: read-out: MICs against PCN033 and RS218
PCN033 [6] = format: cell-based, Escherichia coli
PCN033 [7] = assay: Scanning electron microscopy of treated bacteria; format: cell-based, Escherichia coli; details: tetracycline 1/16 MBC, PMAP-36 1/4 MBC, alone or combined, MHB 37 °C
E. coli PCN033 [8] = assay: microbe, parasite or virus in culture; details: Escherichia coli; for MBC: PCN033, read-out: MBC, E. coli PCN033, colony counting on LB agar from wells without visible growth; for MIC: PCN033, read-out: MIC, E. coli PCN033, MHB microdilution, 16-20 h at 37 °C, triplicate, lowest concentration inhibiting visual growth
[9] = system: monocytes and macrophages in the PLF; assay: Flow cytometry of immune cells in peritoneal lavage fluid of infected mice; format: in vivo, mouse; details: 12 h post-infection, flow cytometry F4/80 and Gr-1, n = 3/group
Procedure: Mice were infected and treated with the test compounds as described above. After 12 h of infection, PLF was collected with 2 mL of sterile PBS, and the cells were centrifuged at 1800 rpm for 3 min. Then, the cells were blocked with 1 mL of 2% bovine serum albumin (BSA) in PBS for 30 min. An anti-mouse CD16/32 antibody (1:50) (BioLegend, CA, USA) was used to block nonspecific antibody binding in 0.5% BSA buffer for 30 min at 4 °C. Next, the cells were stained with PE-conjugated anti-mouse F4/80 antibody (1:50) (BioLegend, CA, USA) and FITC-conjugated anti-mouse Ly-6G/Ly-6C (Gr-1) antibody (1:200) (BioLegend, CA, USA) in 0.5% BSA for 30 min at 4 °C. Afterwards, the cells were washed twice with 150 μL of 2% BSA and analysed using flow cytometry.

PCN033 [10] = assay: Time-kill curve assay; format: cell-based, Escherichia coli; details: sub-MBC: PMAP-36 1/4 MBC, tetracycline 1/16 MBC, gentamicin 1/8 MBC, 37 °C
[11] = MHB microdilution, 16-20 h at 37 °C, triplicate, lowest concentration inhibiting visual growth
[12] = colony counting on LB agar from wells without visible growth

Compound | MIC (E. coli RS218 [1]) [µM] | MIC (E. coli PCN033 [8]) [µM] | MIC, E. coli PCN033 (E. coli PCN033 [2]; PCN033) [µM] | MIC, E. coli RS218 (E. coli RS218 [3]; RS218) [µM] | MBC (E. coli RS218 [1]) [µM] | MIC, E. coli PCN033 (E. coli PCN033 [2]; [11]) | MBC, E. coli PCN033 (E. coli PCN033 [2]; [12]) | MBC, E. coli PCN033 (E. coli PCN033 [2]; PCN033) [µM] | MBC, E. coli RS218 (E. coli RS218 [3]; RS218) [µM] | other results
Cc1onc(-c2ccccc2)c1C(=O)N[C@@H]1C(=O)N2[C@@H]1SC(C)(C)[C@@H]2C(=O)O [Oxacillin, oxacillin] | 320 (≈ 128 µg/mL) |  |  |  | 1280 (≈ 514 µg/mL) | 5120 µM (≈ 2060 µg/mL) | 10,240 μM |  |  | MIC, E. coli PCN033 (E. coli PCN033 [2]; MHB microdilution, 16-20 h at 37 °C, triplicate, lowest concentration inhibiting visual growth, listed as oxacillin): greater than 160 μM
CC1(C)S[C@@H]2[C@H](NC(=O)[C@H](N)c3ccccc3)C(=O)N2[C@H]1C(=O)O [Ampicillin, ampicillin] | 2.5 to 10 (≈ 0.874 to 3.49 µg/mL) |  |  |  | 5 to 20 (≈ 1.75 to 6.99 µg/mL) | 20,480 μM | 40,960 μM |  |  | MIC, E. coli PCN033 (E. coli PCN033 [2]; MHB microdilution, 16-20 h at 37 °C, triplicate, lowest concentration inhibiting visual growth, listed as ampicillin): greater than 160 μM; MBC, E. coli PCN033 (E. coli PCN033 [2]; colony counting on LB agar from wells without visible growth, listed as ampicillin): greater than 1280 μM; MIC, E. coli RS218 (E. coli RS218 [3]; [11]): 5 µM (≈ 1.75 µg/mL); MBC, E. coli RS218 (E. coli RS218 [3]; [12]): 10 µM (≈ 3.49 µg/mL)
GLLRKGGEKIGEKLKKIGQKIKNFFQKLVPQPEQ [CRAMP] |  |  |  |  |  | 10 µM | 20 µM |  |  | MIC, E. coli RS218 (E. coli RS218 [3]; [11]): 5 µM; MBC, E. coli RS218 (E. coli RS218 [3]; [12]): 20 µM
CN(C)[C@@H]1C(O)=C(C(N)=O)C(=O)[C@@]2(O)C(O)=C3C(=O)c4c(O)cccc4[C@@](C)(O)[C@H]3C[C@@H]12 [Tetracycline, tetracycline] | 2.5 (≈ 1.11 µg/mL) | 160 (≈ 71.1 µg/mL) |  |  | 5 (≈ 2.22 µg/mL) |  |  |  |  | time within which all treated mice died (PCN033 [4]): ≤ 24 h; decrease of MBC when used in combination (E. coli PCN033 [5]): 16 fold; MBC (PCN033 and RS218): 5 to 320 µM (≈ 2.22 to 142 µg/mL); MIC (PCN033 and RS218): 2.5 to 320 µM (≈ 1.11 to 142 µg/mL); increase of the MIC of tetracycline, 10th generation (PCN033 [6]): 1.5 fold; change of the MIC of tetracycline after 30 generations (PCN033 [6]; PCN033 grown at sub-MIC: tetracycline 1/4 MIC, PMAP-36 1/4 MIC, or 1/8 MIC + 1/8 MIC, normalised to first generation): threefold; cell morphology under SEM (PCN033 [7]): slight cell shrinkage; MBC (E. coli PCN033 [8]): 160 µM (≈ 71.1 µg/mL); number of monocytes and macrophages in the PLF [9]: only slightly increased
PIRNWWIRIWEWLNGIRKRLRQRSPFYVRGHLNVTSTPQP [CATH-B1] |  |  | > 40 | > 40 |  |  |  | > 40 | > 40 | 
[H]/N=C(/N)N[C@H]1[C@H](O)[C@@H](O)[C@H](O[C@@H]2O[C@@H](C)[C@](O)(C=O)[C@H]2O[C@@H]2O[C@@H](CO)[C@H](O)[C@@H](O)[C@@H]2NC)[C@@H](N/C(N)=N\[H])[C@@H]1O [Streptomycin, streptomycin] | 41000 (≈ 23800 µg/mL) | > 160 |  |  | > 41000 |  |  |  |  | 
CO/N=C(\C(=O)N[C@@H]1C(=O)N2C(C(=O)O)=C(COC(C)=O)CS[C@H]12)c1csc(N)n1 [Cefotaxime, cefotaxime] | < 0.625 | < 0.625 |  |  | < 0.625 |  |  |  |  | MBC (PCN033 and RS218): < 0.625 µM; MIC (PCN033 and RS218): < 0.625 µM; MBC (E. coli PCN033 [8]): < 0.625 µM
CNC(C)C1CCC(N)C(OC2C(N)CC(N)C(OC3OCC(C)(O)C(NC)C3O)C2O)O1 (stereo not shown) [Gentamicin, gentamicin] | 2.5 to 10 (≈ 1.19 to 4.78 µg/mL) | > 160 |  |  | 5 to 20 (≈ 2.39 to 9.55 µg/mL) | 320 µM (≈ 153 µg/mL) | 1280 µM (≈ 611 µg/mL) |  |  | MBC (E. coli PCN033 [8]): > 1280 µM; MIC, E. coli RS218 (E. coli RS218 [3]; [11]): 2.5 µM (≈ 1.19 µg/mL); MBC, E. coli RS218 (E. coli RS218 [3]; [12]): 5 µM (≈ 2.39 µg/mL); bactericidal activity within 120 min, agent alone (PCN033 [10]): did not show obvious bactericidal activity
RRRPRPPYLPRPRPPPFFPPRLPPRIPPGFPPRFPPRFP [PR-39] |  |  | 5 | 2.5 |  |  |  | 10 | 5 | 

The next lines start with results.

MIC (E. coli RS218 [1]) [µM] | MIC (E. coli PCN033 [8]) [µM] | MIC, E. coli PCN033 (E. coli PCN033 [2]; PCN033) [µM] | MIC, E. coli RS218 (E. coli RS218 [3]; RS218) [µM] | Compound | MBC (E. coli RS218 [1]) [µM] | MIC, E. coli PCN033 (E. coli PCN033 [2]; [11]) | MBC, E. coli PCN033 (E. coli PCN033 [2]; [12]) | MBC, E. coli PCN033 (E. coli PCN033 [2]; PCN033) [µM] | MBC, E. coli RS218 (E. coli RS218 [3]; RS218) [µM] | other results
 |  | 10 | 5 | RVKRFWPLVPVAINTVAAGINLYKAIRRK [CATH-3] |  |  |  | 20 | 10 | 
 |  | 10 | 5 | RFGRFLRKIRRFRPKVTITIQGSARF [CATH-2] |  |  |  | 20 | 10 | 
 |  | 2.5 | 2.5 | GRFRRLRKKTRKRLKKIGKVLKWIPPIVGSIPLGCG [PMAP-36, porcine myeloid antimicrobial peptide 36] |  |  |  | 10 | 5 | 
